ChEMBL document CHEMBL2040840, “New quinoline-5,8-dione and hydroxynaphthoquinone derivatives inhibit a chloroquine resistant Plasmodium falciparum strain” (Eur J Med Chem, 2012)
Activity calls are given as the source filed them. The calls are words filed in the database; no cut-off is given here.

Columns and labels:
Plasmodium falciparum [1] = assay: Antiplasmodial activity against Plasmodium falciparum NF54 infected in human erythrocytes after 72 hrs by geimsa staining; type: functional, organism-based; conditions: for IC50: NF54, 72 h
Plasmodium falciparum [2] = assay: Antiplasmodial activity against Plasmodium falciparum NF54 infected in human erythrocytes assessed as decrease in parasitemia measured on day 1 post-treatment by geimsa staining (reference value: 0.65 +/- 02%); type: functional; parameters: scale not given: the % may be the effect or the level left
Plasmodium falciparum [3] = assay: Antiplasmodial activity against Plasmodium falciparum NF54 infected in human erythrocytes assessed as decrease in parasitemia measured on day 2 post-treatment by geimsa staining (reference value: 1.1 +/- 0.09%); type: functional; parameters: scale not given: the % may be the effect or the level left
Plasmodium falciparum [4] = assay: Antiplasmodial activity against Plasmodium falciparum NF54 infected in human erythrocytes assessed as decrease in parasitemia measured on day 3 post-treatment by geimsa staining (reference value: 2.18 +/- 0.17%); type: functional; parameters: scale not given: the % may be the effect or the level left
Plasmodium falciparum [5] = assay: Antiplasmodial activity against Plasmodium falciparum NF54 infected in human erythrocytes assessed as decrease in parasitemia measured on day 4 post-treatment by geimsa staining (reference value: 3.28 +/- 0.11%); type: functional; parameters: scale not given: the % may be the effect or the level left

Work on `Cc1ccc2c(n1)C(=O)C(Br)=C(N1CCN(c3ccccc3)CC1)C2=O` yielded an IC50 (Plasmodium falciparum [1]) of 2.21 µM, an Activity (Plasmodium falciparum [2]) of 0.46% and an Activity (Plasmodium falciparum [3]) of 0.29%. The Activity (Plasmodium falciparum [4]) was 0% and the Activity (Plasmodium falciparum [5]) was 0%.
`Cc1ccc2c(Br)cc(Br)c(O)c2n1` [BROQUINALDOL] gave an IC50 (Plasmodium falciparum [1]) of 7.54 µM.
With `CCCc1ccc(-c2ccc(NC3=C(Br)C(=O)c4ncccc4C3=O)cc2)cc1` the IC50 (Plasmodium falciparum [1]) was 3 µM.
`CCCc1ccc(-c2ccc(NC3=C(Br)C(=O)c4nc(C)ccc4C3=O)cc2)cc1` showed an IC50 (Plasmodium falciparum [1]) of 4.37 µM, an Activity (Plasmodium falciparum [2]) of 0.42% and an Activity (Plasmodium falciparum [3]) of 0.19%. It also gave an Activity (Plasmodium falciparum [4]) of 0.05% and an Activity (Plasmodium falciparum [5]) of 0%.
`Cc1ccc2c(n1)C(=O)C=C(N1CCN(c3ccccc3)CC1)C2=O` gave an IC50 (Plasmodium falciparum [1]) of 3.96 µM, an Activity (Plasmodium falciparum [2]) of 0.43% and an Activity (Plasmodium falciparum [3]) of 0.25%. The Activity (Plasmodium falciparum [4]) was 0.04% and the Activity (Plasmodium falciparum [5]) was 0%.
With `CCN(CC)CCCC(C)Nc1ccnc2cc(Cl)ccc12` (configuration not stated) [CHLOROQUINE] the Activity (Plasmodium falciparum [2]) was 0.06%, the Activity (Plasmodium falciparum [3]) was 0% and the Activity (Plasmodium falciparum [4]) was 0%. The Activity (Plasmodium falciparum [5]) was 0%.
With `O=C1C(O)=C(N2CCN(c3ccccc3)CC2)C(=O)c2ccccc21` the IC50 (Plasmodium falciparum [1]) was 3.89 µM, the Activity (Plasmodium falciparum [2]) was 0.5% and the Activity (Plasmodium falciparum [3]) was 0.26%. It also gave an Activity (Plasmodium falciparum [4]) of 0.03% and an Activity (Plasmodium falciparum [5]) of 0%.
With `Oc1c(Br)cc(Br)c2cccnc12` the Activity (Plasmodium falciparum [1]) was “inactive”.
With `Cc1ccc2c(n1)C(=O)C(Br)=C(NN1CCN(N)CC1)C2=O` the IC50 (Plasmodium falciparum [1]) was 4.1 µM, the Activity (Plasmodium falciparum [2]) was 0.48% and the Activity (Plasmodium falciparum [3]) was 0.28%. For the same compound, the Activity (Plasmodium falciparum [4]) was 0.07% and the Activity (Plasmodium falciparum [5]) was 0%.
`Cc1ccc2c(n1)C(=O)C(Br)=C(NN1CCN(NC3=C(Br)C(=O)c4nc(C)ccc4C3=O)CC1)C2=O` gave an IC50 (Plasmodium falciparum [1]) of 3.93 µM, an Activity (Plasmodium falciparum [2]) of 0.65% and an Activity (Plasmodium falciparum [3]) of 0.49%. It also gave an Activity (Plasmodium falciparum [4]) of 0.05% and an Activity (Plasmodium falciparum [5]) of 0%.
